Reference: PMC8247401, “Evaluation of clinical and genetic factors in the population pharmacokinetics of carbamazepine” (British Journal of Clinical Pharmacology, 2020)
Where two headings read alike, the source gives them in different places.

What was measured:
[1] = Population PK model (NONMEM) of plasma CBZ and 3 metabolites after oral CBZ; conditions: for % Interindividual variability of V2: V2 shared by the 3 metabolites; for clearance: human, plasma, oral; for V2, volume of distribution of metabolites: same V2 estimated for CBZE, 2OH-CBZ and 3OH-CBZ, apparent; for effect of concomitant treatment as covariate on CBZ clearance/metabolism: categorical covariate on CLTOT in the population PK model, small numbers of subjects
[2] = 70-kg patient prescribed 400 mg CBZ; model assumes 0.65 of CBZ converted to CBZE; cited from earlier work
[3] = test system: microsomal epoxide hydrolase; conditions: concurrent brivaracetam therapy in patients on CBZ; cited from earlier work
[4] = set-up: method as in PMID 17382827; conditions: patients treated with CBZ, cited from earlier work
[5] = set-up: method as in PMID 6491988; conditions: fixed, not estimated; CL2 (to CBZE)=CLTOT*(1-FM1), CL3=CL4=CLTOT*FM1/2; cited from earlier work
[6] = cited from earlier work
[7] = final model, log-normal distribution

In the case of NC(=O)N1c2ccccc2C2OC2c2ccccc21 (stereo not shown) [CBZE, carbamazepine 10,11‐epoxide], the “reduction of clearance of CBZE” value ([1]; EPHX1-416G/G genotype (3 subjects) compared with EPHX1-416G/A and -416A/A) is reported as “approximately 50%”, the “% Interindividual variability of CL2E” value [1, 7] is reported as 27.9% and the “% Interindividual variability of V2” value [1, 7] is reported as 149.7%. The clearance [1] was 162 mL/min, the “Cov.Eff.(EPHXAGHOM on CL2E)” value ([1]; multiplier on CBZE clearance in EPHX1-416G/G homozygotes (n=3) vs G/A and A/A) was 0.502 and the “V2, volume of distribution of metabolites” value (from here on “V2, volume”) ([1]; population mean) was 39.2 L. For the same molecule, the “CL estimate for CBZE in a previous population PK model” value [2] was 28 L/h.

For NC(=O)OCC(COC(N)=O)c1ccccc1 [felbamate], the “effect of concomitant treatment as covariate on CBZ clearance/metabolism” value (“effect … on CBZ clearance/metabolism” for short) [1] was “None of those antiepileptic drugs (AEDs) achieved a significant effect”.

In the case of NC(=O)N1c2ccccc2C=Cc2ccc(O)cc21 [3OH‐CBZ, 3‐hydroxycarbamazepine], the “% Interindividual variability of CL4E” value [1, 7] is reported as 34.5%, the “% Interindividual variability of V2” value [1, 7] is reported as 149.7% and the clearance [1] is reported as 9050 mL/min. The “V2, volume” value ([1]; population mean) was 39.2 L.

For NC(=O)N1c2ccccc2C=Cc2cc(O)ccc21 [2OH‐CBZ, 2‐hydroxycarbamazepine], the “% Interindividual variability of CL3E” value [1, 7] was 42.3%, the “% Interindividual variability of V2” value [1, 7] was 149.7% and the clearance [1] was 12100 mL/min. The CL3E induction effect ([1]; multiplier (fold) on CL3E for induced period vs non-induced) was 1.63 and the “V2, volume” value ([1]; population mean) was 39.2 L.

In the case of CCC[C@@H]1CC(=O)N([C@@H](CC)C(N)=O)C1 [Brivaracetam], the “rise in CBZE levels, median” value [3] is given as 83.9% and the “rise in CBZE levels, range” value [3] is given as 57.9–341.7%.

For CCC1(c2ccccc2)C(=O)NC(=O)NC1=O [phenobarbital], the “effect … on CBZ clearance/metabolism” value [1] was “None of those antiepileptic drugs (AEDs) achieved a significant effect”.

For COc1ccc2[nH]c([S+]([O-])Cc3ncc(C)c(OC)c3C)nc2c1 (stereo not shown) [omeprazole], the “effect … on CBZ clearance/metabolism” value [1] was “Neither was found to affect metabolism of CBZ significantly”.

For NC(=O)N1c2ccccc2C=Cc2ccccc21 [CBZ, Carbamazepine], the “% Interindividual variability of CLTOT” value [1, 7] was 25.3%, the “% Interindividual variability of FM1” value [1, 7] was 6.3% and the “% Interindividual variability of KASTAR” value [1, 7] was 75.3%. The “% Interindividual variability of V1” value [1, 7] was 13.6%, the “V1, central distribution volume of CBZ” value ([1]; population mean, final model, apparent (V/F)) was 161 L and the “CLTOT, total clearance of CBZ” value ([1]; population mean, final model, oral dosing, apparent (CL/F), typical value non-induced, 400 mg daily dose, no phenytoin) was 1.96 L/h. The KASTAR ([1]; population mean, absorption rate constant KA=CLTOT/V1+KAstar) was 0.409 h⁻¹, the “patients experiencing a hypersensitivity reaction” value [4] was “up to 10%” and the “patients experiencing a hypersensitivity reaction” value ([4]; listed as Carbamazepine) was ~ 10%. For the same molecule, the “FM1 (metabolite fraction)” value [5] was 0.64, the “fraction of CBZ converted to CBZE assumed in this model” value [6] was 0.36 and the “parent CBZ primarily converted to CBZE” value ([6]; prior mass balance information) was 36%. For the same molecule, the “fraction of CBZ converted to CBZE assumed in the model of Jiao et al.” value ([6]; ref Jiao et al. (58)) was 0.65.
